Laboratory results as given in the NIST ThermoML archive (doi:10.1021/je900279z).

Conditions: Gas, Oscillating disk viscometry

FC(F)CC(F)(F)F [1,1,1,3,3-pentafluoropropane]
Conditions | viscosity [mPa·s]
300.81 K, 136 kPa | 0.01064
300.88 K, 113 kPa | 0.01065
300.93 K, 107 kPa | 0.01066
320.26 K, 145 kPa | 0.01124
320.33 K, 186 kPa | 0.01125
320.53 K, 108 kPa | 0.01127
320.58 K, 254 kPa | 0.01127
338.61 K, 100 kPa | 0.01186
338.61 K, 435 kPa | 0.01186
338.98 K, 307 kPa | 0.01184
339.02 K, 207 kPa | 0.01186
339.15 K, 145 kPa | 0.01186
357.15 K, 592 kPa | 0.01252
357.23 K, 104 kPa | 0.01256
357.23 K, 305 kPa | 0.01253
357.38 K, 159 kPa | 0.01255
357.39 K, 108 kPa | 0.01256
357.4 K, 224 kPa | 0.01254
357.43 K, 403 kPa | 0.01252
357.43 K, 708 kPa | 0.01252
357.52 K, 503 kPa | 0.01252
376.25 K, 164 kPa | 0.01303
376.38 K, 254 kPa | 0.01303
376.39 K, 567 kPa | 0.01306
376.43 K, 1071 kPa | 0.01318
376.46 K, 107 kPa | 0.01304
376.54 K, 348 kPa | 0.01304
376.58 K, 676 kPa | 0.01308
376.61 K, 457 kPa | 0.01305
376.61 K, 945 kPa | 0.01314
376.63 K, 1312 kPa | 0.01339
376.64 K, 797 kPa | 0.0131
395.6 K, 109 kPa | 0.01357
395.66 K, 213 kPa | 0.01355
395.77 K, 311 kPa | 0.01358
395.8 K, 417 kPa | 0.01359
395.81 K, 823 kPa | 0.0137
395.85 K, 512 kPa | 0.01362
395.93 K, 616 kPa | 0.01364
395.93 K, 723 kPa | 0.01366
396 K, 934 kPa | 0.01374
396.02 K, 1280 kPa | 0.01396
396.17 K, 1390 kPa | 0.01408
396.22 K, 1164 kPa | 0.01388
396.24 K, 1044 kPa | 0.01386
396.35 K, 1505 kPa | 0.01416
396.46 K, 1614 kPa | 0.0143

[Ar] [argon]
Conditions | viscosity [mPa·s]
300.11 K, 400 kPa | 0.02271
300.17 K, 103 kPa | 0.02279
300.19 K, 199 kPa | 0.02265
300.25 K, 302 kPa | 0.02265
300.32 K, 832 kPa | 0.02286
300.38 K, 616 kPa | 0.0228
300.49 K, 2082 kPa | 0.02335
300.54 K, 3089 kPa | 0.02347
300.56 K, 4050 kPa | 0.02364
300.58 K, 4503 kPa | 0.02383
300.63 K, 3427 kPa | 0.02343
300.66 K, 2759 kPa | 0.02338
300.68 K, 1446 kPa | 0.02313
300.7 K, 3729 kPa | 0.02351
300.72 K, 2458 kPa | 0.02338
300.76 K, 1775 kPa | 0.02325
300.89 K, 1117 kPa | 0.02293
